This note sets out measurements from US20220324770A1, “NITRIFICATION INHIBITORS” (The University of Melbourne, priority 2019, published 2022).

The test system of one experiment is Dahlen soil. In words: Soil microcosm incubation (nitrification of applied ammonium), Dahlen soil. The conditions noted are these: for retaining NH4+—N levels by day 28 vs fertilised control (and DMPP): 25° C.; for Nitrified NH4+—N (%) Day 3 / Nitrified NH4+—N (%) Day 7 / Nitrified NH4+—N (%) Day 14 / Nitrified NH4+—N (%) Day 21 / Nitrified NH4+—N (%) Day 28: 10 mol %. How it is done:
(§1) The soil used in this study was collected from four different locations in Victoria, Australia: (i) a wheat cropping soil from Horsham (36° 45′S, 142° 07′ E), (ii) a rotational cropping soil from Dahlen (36° 37′S, 142° 09′ E), (iii) a vegetable growing soil from Clyde (38° 08′S, 145° 20′ E), and (iv) a pasture soil from Terang (38° 15′S, 142° 52′E). In addition, a sugarcane cropping soil from South Johnstone in northern Queensland (17° 34′S, 145° 57′ E) was also studied. The water content of the soil was calculated before commencing each experiment, from samples that were oven-dried to constant weight. The soil's water-filled pore space (WFPS) was in the range 52%-61%, which is within the recommended 50-70% range for microbial activity due to oxygen and nutrient availability (Fichtner, T., et al., Applied Sciences, 2019, 9, 496).
(§2) Soil microcosm incubations were carried out in 250 ml polypropylene specimen containers (Sarstedt, Germany), containing 18.24 g oven dry-weight equivalent of soil. Microcosms were re-wetted and pre-incubated at the test temperature for seven days to revive soil microbial activity. Following pre-incubation, the remaining volume to reach the desired water-filled pore spaces (WFPS %) was applied as one of the following treatment solutions; (NH4)2SO4(Control), (NH4)2SO4+DMPP, or (NH4)2SO4+one of Compounds 1-23. Each treatment was applied in triplicate per soil type, so that n=3 at each time point.
(§3) Treatment solutions were prepared such that each microcosm received (NH4)2SO4 at a rate of 100 mg N per kg soil, Compounds 1-23 at 10 mol % of applied N, or DMPP at one of 1.5, 3.6 or 10 mol % of applied N, referred to as L-DMPP, M-DMPP or H-DMPP respectively.
(§4) The microcosms were incubated for 0, 3, 7, 14, 21 or 28 days, where day 0 samples were extracted following 1-hour incubation post-treatment. Soil microcosms were aerated and moisture levels were replenished based on weight loss every few days throughout the incubation period.
(§5) At the end of each incubation period, soil microcosms were destructively sampled by treatment with 2M KCl (100 mL). After shaking for 1 hour, soil-KCl solutions were filtered (Whatman 42) before storing the filtrates at −20° C. until the conclusion of the experiment. All KCl extracts were then analysed by Segmented Flow Analysis (San++, Skalar, Breda, The Netherlands) for the concentration of nitrogen from ammonium (NH4^+—N) and nitrogen from NO3 and NO2 (NOx^−—N) after appropriate dilutions. Results are reported as the mean of three replicates, errors reported are standard errors of the mean.
(§6) Nitrification calculations were performed as previously reported (Aulakh, M., et al., Biology and Fertility of Soils 2001, 33, 258-263; Mahmood, T., et al., Soil Research 2017, 55, 715-722) without correction for the initial baseline concentrations of NH4^+—N or NO3^− N in the untreated soil. For each treatment nitrified NH4^+—N (%) was calculated according to eqn. 1:
(§7) where [NH4^+—N]0 is the NH4^+—N concentration (in mg N kg^−1 soil) of the soil on day 0 and [NH4^+—N]t is the NH4^+—N concentration (in mg N kg^−1 soil) of the soil at a given time point t.
(§8) NOx^−—N accumulation rates (mg NOx^−—N/kg soil/day) over the 28-day incubation experiments were calculated for each treatment as in the following (eqn. 2):
(§9) [NOx^−—N]t=0 and [NOx^−—N]t=28 are the combined concentrations of nitrite (NO2) and nitrate (NO3) in the soil (in mg N kg^−1 soil) on day 0 and day 28, respectively.

For the next experiment, the system named is Horsham soil. Nature of the experiment: Soil microcosm incubation (nitrification of applied ammonium), Horsham soil. How it is done: as §1, §2, §3, §4, §5, §6, §7, §8, §9
Setting [1] is: Table 5 (further comparative test), Dahlen soil pH 7.3, 25° C.
[2] abbreviates: Table 5, Dahlen soil pH 7.3, 25° C.
Where [3] appears, read: Table 5, Dahlen soil pH 7.3, 35° C.
Where [4] appears, read: Horsham soil pH 8.8, 25° C., 10 mol %.
[5] abbreviates: Horsham soil pH 8.8, 35° C., 10 mol %.

Structures are written as SMILES.

For `C=CCOC(=O)Cn1cc(CCC)nn1` [Compound 20, prop-2-en-1-yl 2-(4-propyl-1H-1,2,3-triazol-1-yl)-acetate], the “retaining NH4+—N levels by day 28 vs fertilised control (and DMPP)” value in the experiment with Dahlen soil (Dahlen soil, Table 5 test) is given as “performed statistically better than the fertilised control”. Also, the “retaining NH4+—N vs (NH4)2SO4-treated control by day 28” value with Dahlen soil (Dahlen soil, 35° C., Table 5 test) is “remain highly effective”. Moreover, in the experiment with Dahlen soil (setting [1]), the “Nitrified NH4+—N (%) Day 3” value was 1.9 ± 1.3%. For the same compound, in the experiment on Dahlen soil (setting [2]), the “Nitrified NH4+—N (%) Day 7” value is 8.0 ± 0.6%, the “Nitrified NH4+—N (%) Day 14” value is 15.2 ± 1.2%, the “Nitrified NH4+—N (%) Day 21” value was determined as 26.0 ± 2.1% and the “Nitrified NH4+—N (%) Day 28” value was found to be 31.8 ± 4.5%. Further, in the experiment on Dahlen soil (setting [3]), the “Nitrified NH4+—N (%) Day 3” value stood at 16.6 ± 4.5%, the “Nitrified NH4+—N (%) Day 7” value was 5.0 ± 4.3%, the “Nitrified NH4+—N (%) Day 14” value came to 17.7 ± 3.8% and the “Nitrified NH4+—N (%) Day 21” value stood at 17.1 ± 3.6%. Besides, the “Nitrified NH4+—N (%) Day 28” value in the experiment with Dahlen soil (setting [3]) worked out at 45.6 ± 8.3%.
Turning to `CCCCc1cn(CCOC)nn1` [Compound 14, 1-(2-methoxyethyl)-4-butyl-1H-1,2,3-triazole], the “Nitrified NH4+—N (%) Day 3” value in the experiment with Horsham soil (Horsham soil pH 8.8, 25° C., inhibitors 10 mol % of applied N) stood at 23.8 ± 3.0%. Besides, in the experiment on Horsham soil (setting [4]), the “Nitrified NH4+—N (%) Day 7” value was 38.7 ± 5.3%, the “Nitrified NH4+—N (%) Day 14” value turned out to be 84.3 ± 5.6%, the “Nitrified NH4+—N (%) Day 21” value stood at 93.4 ± 6.2% and the “Nitrified NH4+—N (%) Day 28” value came out at 100 ± 3.2%. Further, in the experiment on Horsham soil (setting [5]), the “Nitrified NH4+—N (%) Day 3” value was 13.2 ± 5.4%, the “Nitrified NH4+—N (%) Day 7” value was 15.7 ± 5.7%, the “Nitrified NH4+—N (%) Day 14” value is 39.8 ± 6.6% and the “Nitrified NH4+—N (%) Day 21” value is recorded as 83.5 ± 7.2%. Further, the “Nitrified NH4+—N (%) Day 28” value with Horsham soil (setting [5]) was 79.7 ± 9.4%. Also, the “NOx−—N accumulation: effect of temperature (25° C. vs 35° C.)” value with Horsham soil (Horsham soil, 28-day incubation) was “lower at the elevated temperature”.
As to `C#CCNC(=O)Cn1cc(CCC)nn1` [Compound 23, prop-2-yn-1-yl 2-(4-propyl-1H-1,2,3-triazol-1-yl)-acetamide], in the experiment on Dahlen soil (Dahlen soil, Table 5 test), the “retaining NH4+—N levels by day 28 vs fertilised control (and DMPP)” value was “performed statistically better”. The “Nitrified NH4+—N (%) Day 3” value in the experiment with Dahlen soil (setting [1]) was 4.8 ± 2.9%. In addition, in the experiment on Dahlen soil (setting [2]), the “Nitrified NH4+—N (%) Day 7” value was determined as 15.7 ± 1.5%, the “Nitrified NH4+—N (%) Day 14” value is given as 30.3 ± 0.8%, the “Nitrified NH4+—N (%) Day 21” value worked out at 35.9 ± 1.2% and the “Nitrified NH4+—N (%) Day 28” value came out at 60.5 ± 1.0%. In addition, in the experiment with Dahlen soil (setting [3]), the “Nitrified NH4+—N (%) Day 3” value is 15.6 ± 6.4%, the “Nitrified NH4+—N (%) Day 7” value worked out at 8.8 ± 5.6%, the “Nitrified NH4+—N (%) Day 14” value amounted to 24.0 ± 6.7% and the “Nitrified NH4+—N (%) Day 21” value was 41.7 ± 4.7%. Further, the “Nitrified NH4+—N (%) Day 28” value in the experiment on Dahlen soil (setting [3]) is on record as 64.6 ± 4.9%.
